From article PMC8645997, “Population Pharmacokinetics of Polymyxin B in Obese Patients for Resistant Gram-Negative Infections” (Frontiers in Pharmacology, 2021)
Where a SMILES comes first, the peptide text is derived from it. Bridges are numbered along the chain shown (N, C = ends). [ ]: non-standard residue; d: D form. The star is where a group is joined. X1 = CC[C@H](C)CCCCC(=O)*; Dab = NCC[C@H](N)C(=O)O

What was measured:
[1] = intermediate to high protein binding; ref Sandri et al., 2013; Abodakpi et al., 2015; Avedissian et al., 2019; cited from earlier work
Excerpt: Obesity can cause related pathophysiological changes that could theoretically alter the PK characteristic of drugs, such as increased Vd, altered hepatic metabolism, renal CL, and protein binding. An understanding of how the Vd of a drug changes in obesity is critical because this parameter determines loading-dose selection ([Hanley et al., 2010]). Vd is affected by physicochemical property (lipophilicity or hydrophilicity), plasma protein binding rate, and tissue blood flow ([Al-Dorzi et al., 2014]; [Polso et al., 2014]). Hydrophilic drugs typically have a low Vd, poor tissue penetration, les ...

[2] = daily dose ≥250 mg; 151 patients; 95% CI 1.15–16.25, p = 0.03; ref Nelson et al., 2015; cited from earlier work
Description: From a toxicology perspective, the use of TBW-based dosing in obese patients can lead to polymyxin B overexposure and risk of acute kidney injury (AKI). In a retrospective study of 151 patients, Nelson et al. discovered that a daily dose ≥250 mg was an independent predictor of nephrotoxicity (OR 4.32, 95% CI 1.15–16.25, p = 0.03) in multivariate analysis ([Nelson et al., 2015]). […] These studies raised an important point abo ...

[3] = cited from earlier work
Excerpt: As a weight-based dosing antibiotic with a narrow therapeutic window, polymyxin B regimen in obese patients is particularly concerning. The present study developed a two-compartment model to describe the population PK profile of polymyxin B in obese patients. […] In terms of V and V2 estimates, the values varied widely between studies ([Avedissian et al., 2019]). Compared with the PK parameters reported by our group and Sandri et al, the typical V value (11.24 L, Table 2) was higher than thos ... || Obesity can cause related pathophysiological changes that could theoretically alter the PK characteristic of drugs, such as increased Vd, altered hepatic metabolism, renal CL, and protein binding. An understanding of how the Vd of a drug changes in obesity is critical because this parameter determines loading-dose selection ([Hanley et al., 2010]). Vd is affected by physicochemical property (lipophilicity or hydrophilicity), plasma protein binding rate, and tissue blood flow ([Al-Dorzi et al., 2014]; [Polso et al., 2014]). Hydrophilic drugs typically have a low Vd, poor tissue penetration, les ...

[4] = Population PK modeling of polymyxin B plasma concentrations in obese patients (two-compartment model, Phoenix NLME); assay type: in vivo, human
Description: This retrospective observational study was performed in the First Affiliated Hospital of Zhengzhou University between April 2018 and March 2021. The inclusion criteria for subjects were as follows: 1) patients ≥18 years old; 2) body mass index (BMI) ≥ 30; 3) patients had received intravenous polymyxin B (sulfate; polymyxin B for injection, Shanghai First Biochemical Pharmaceutical Co., Ltd.) for MDR Gram-negative infections; 4) blood sampling at steady state for therapeutic drug monitoring (TDM) was available. Subjects were excluded if 1) patients with continuous renal replacement therapy (CRRT) or extracorporeal membrane oxygenation (ECMO); 2) concentrations were below the lower limit of quantitation. The study protocols were approved by Zhengzhou University Medical Research and Ethics Committee (2021-KY-0441).
Polymyxin B was given to all patients empirically with a 100–200 mg loading dose and a 50–100 mg maintenance dose twice daily. The routine infusion time was at least 1 hour. Polymyxin B treatment, including dosage, infusion time, and treatment course, was determined by their medical teams. Sampling procedures included the following two categories.
From April 2018 to May 2019, 4-7 blood samples (mainly C0h, C1h, C1.5h, C2h, C4h, C6h, and C8h) were collected on day 4 to calculate the area under the concentration across 12 h at steady state (AUCss,12h). From June 2019 to March 2021, according to our previous study, a 2-point model using the limited sampling strategy was a practical approach to estimating polymyxin B AUCss,12h. Therefore, two blood samples (C0h and C2h) were collected. The infusion time was 1 hour ([Wang et al., 2020c]).
Blood samples were immediately centrifuged at 3,500 × g for 10 min. The supernatant was collected and then stored at −80°C until analysis. Polymyxin B concentrations (i.e., the polymyxin B1 concentration plus the polymyxin B2 concentration) were analyzed using a validated high-performance liquid chromatography-mass spectrometry method published by our laboratory ([Wang et al., 2020b]). As previously reported, the assay was linear over 0.2–10.0 μg/ml for polymyxin B1 and 0.05–2.5 μg/ml for polymyxin B2. The intra- and inter-batch assay precision (RSD) ranged from 0 to 13.93% for quality control samples, and their corresponding accuracy (% relative error) ranged from −11.56 to 11.13% ([Wang et al., 2020b]). Since polymyxin B1 and B2 had similar structures, molecular weight, pharmacological activities, and pharmacokinetic characteristics, the plasma concentration of polymyxin B was summed to derive the total polymyxin B1 and B2 concentrations ([Tam et al., 2011]; [Manchandani et al., 2016]).
Population PK modeling process was performed with the Phoenix® NLME software (v7.0, Pharsight, Mountain View, CA, USA). In brief, different PK models (one-, two-, or three-compartment models) were compared using the first-order conditional estimation-extended least-squares (FOCE ELS) method. The inter-individual variability (IIV) of PK parameters was assumed by additive, proportional, or mixed (additive plus proportional) models. The coefficient of variation (CV), the distribution of residuals in diagnostic plots, and the likelihood ratio test (-2 loglikelihood; -2LL) were used to evaluate the model. Following the basic structural modeling step, a stepwise process was used to consider several covariates, including age, TBW, BMI, IBW, ABW, sex, SOFA score, CrCL, adjusted CrCL, ideal CrCL, serum creatinine, and GFR. A drop >6.63 (p = 0.01) of objective function value (OFV; -2LL) for forward addition and an increase of OFV >10.83 (p = 0.001) for backward elimination were the inclusion criteria for covariates. After covariate selection, based on the scatter plot and ΔOFV (a drop of OFV >6.63), the relevant correlation between random effects was also explored.
For model evaluation, the goodness-of-fit (GOF) plots were used to evaluate the reliability of the final model. […]

[5] = obese patients, n = 26, iv, steady state

For `CC[C@H](C)CCCCC(=O)N[C@@H](CCN)C(=O)N[C@H](C(=O)N[C@@H](CCN)C(=O)N[C@H]1CCNC(=O)[C@H]([C@@H](C)O)NC(=O)[C@H](CCN)NC(=O)[C@H](CCN)NC(=O)[C@H](CC(C)C)NC(=O)[C@@H](Cc2ccccc2)NC(=O)[C@H](CCN)NC1=O)[C@@H](C)O` [polymyxin B] (X1-[Dab]T[Dab][Dab][Dab][dF]L[Dab][Dab]T; lactam 4-C), the protein binding [1] is listed as 58–90%, the “OR of nephrotoxicity (independent predictor, multivariate analysis)” value [2] is listed as 4.32 and the Vd ([3]; low to intermediate Vd, ref Sandri et al., 2013, Abodakpi et al., 2015, Avedissian et al., 2019) is listed as 6.3 to 47.2 L. For the same compound, the “typical CL value, previous reports” value ([3]; previous reports, ref Avedissian et al., 2019) was 1.87 to 2.63 L/h, the “V2 value, reported previously” value ([3]; ref Sandri et al., 2013, Wang et al., 2020c, 2021) was 10.57 to 11.97 L and the “typical V value, reported previously” value ([3]; reported by our group and Sandri et al, ref Sandri et al., 2013, Wang et al., 2020c, Wang et al., 2021) was 6.22 to 6.98 L. For the same compound, the “tvCL, bootstrap median” value ([4]; bootstrap, 1,000 samples) was 2.73, the “tvQ, bootstrap median” value ([4]; bootstrap, 1,000 samples) was 7.71 and the “tvV2, bootstrap median” value ([4]; bootstrap, 1,000 samples) was 40.46. The “tvV, bootstrap median” value ([4]; bootstrap, 1,000 samples) was 11.46, the “tvV, typical value of central compartment distribution volume (V), final model estimate” value ([4]; obese patients (BMI >=30), n = 26, 142 plasma concentrations, iv, steady state) was 11.24 L and the “tvCL, central compartment clearance, final model estimate” value [4, 5] was 2.86 L/h. For the same compound, the “tvQ, inter-compartmental clearance, final model estimate” value [4, 5] was 7.36 and the “tvV2, peripheral compartment distribution volume, final model estimate” value [4, 5] was 39.70 L.
